# Results taken from US20070254877A1, “Indole Derivative and Use for Treatment of Cancer” (Takada Pharmaceutical Company Limited, priority 2004, published 2007).
# Counter-ions that a name gives are not always drawn.
# Target: T1, VEGFR2 intracellular domain protein (Homo sapiens, UniProt P35968)
# T1 construct: made in house; host or cells: SF-21 insect cells infected with recombinant baculovirus BAC-VEGFR2
# Experiment: Determination of VEGF Receptor 2 Kinase (VEGFR2) inhibitory activity (AlphaScreen)
# Assay type: biochemical
# Conditions: test compound at 1 μM; ATP 25 μM buffer, 25° C., 5 min; read-out: kinase inhibitory rate (%)
# Protocol: Human VEGF receptor 2 (hereinafter to be abbreviated as VEGFR2) gene was cloned by PCR using cDNA Libraries Human Placenta (Clontech) as a template. The primer used for PCR was prepared from nucleotide sequence (Genbank Accession AF035121) information of VEGFR2 gene by adding a nucleotide sequence encoding flag peptide and a restriction enzyme recognition sequence to a nucleotide sequence (2671-4374 of Genbank Accession AF035121) encoding the VEGFR2 intracellular domain region, so that the protein contains an N-terminal flag tag. The primer nucleotide sequence is shown below.
# SF-21 cells were sown at 1×10^6 cells/ml to Sf-900II SFM medium (1 L, Invitrogen) containing 10% fetal bovine serum (trace), 50 mg/L gentamicin (Invitrogen) and 0.1% Pluronic F-68 (Invitrogen), and shaking culture was performed using a 2 L volume Erlenmeyer flask at 27° C., 100 rpm. After culturing for 24 hrs, recombinant baculovirus BAC-VEGFR2 (13.4 mL) was added, and the mixture was further cultured for 3 days. The culture medium was centrifuged at 2,000 rpm for 5 min to give virus-infected cells. The infected cells were washed with a phosphate buffered saline (Invitrogen), centrifuged under the same conditions, and the cells were preserved at −80° C. The cryopreserved cells were thawed in ice, suspended in buffer A (50 mM Tris buffer (30 mL, pH 7.4) containing 20% glycerol, 0.15 M NaCl) supplemented with Complete Protease Inhibitor (Boehringer), and ruptured 3 times with a Polytron homogenizer (Kinematica) at 20,000 rpm for 30 sec. The rupture medium was clarified by centrifugation at 40,000 rpm for 30 min and filtered with a 0.45 μm filter. The filtrate was passed through a column packed with Anti-FLAG M2 Affinity Gel (4 mL, Sigma) at a flow rate of about 0.5 mL/min. The column was washed with buffer A, and eluted with buffer A containing 100 μg/mL of FLAG peptide. The eluate was concentrated with Vivaspin 20 (Vivascience) having a molecular weight cut off of 30K. The buffer of this concentrate was exchanged using NAP™ 25 column (Amersham Bioscience) equilibrated with buffer A. The fractions containing VEGFR2 intracellular domain protein were collected, glycerol was added to the final concentration of 50% and cryopreserved at −80° C.
# A test compound dissolved in dimethyl sulfoxide (DMSO) was diluted with a buffer (50 mM Tris-HCl (pH 7.5), 5 mM MgCl2, 5 mM MnCl2, 2 mM dithiothreitol, 0.01% Tween-20). To this compound solution (5 μl) was added a buffer […] containing 50 ng/ml of VEGFR2 intracellular domain protein and 250 ng/ml of biotin labeled polypeptide biotinyl-poly-Glu:Tyr (4:1) (CIS bio International). To the obtained mixture was added a buffer (10 μl) containing ATP (25 μM), the mixture was allowed to react at 25° C. for 5 min and the reaction was quenched with 25 μl of a stop solution (100 mM EDTA disodium salt, 62.5 mM HEPES buffer (pH 7.4), 250 mM NaCl, 0.1% bovine serum albumin, 10 μg/ml AlphaScreen assay streptavidin donor beads (Streptavidin Donor beads: PerkinElmer), 10 μg/ml AlphaScreen assay anti-phosphotyrosine recognition antibody PY-100 binding acceptor beads (Anti-phosphotyrosine (P-Tyr-100) Acceptor beads: PerkinElmer)). The reaction solution was allowed to stand at 25° C. for 16 hrs, and the […] using a plate reader Fusion™ (manufactured by PerkinElmer). The kinase inhibitory rate (%) of the test compound was calculated by the following formula: Inhibitory rate (%)=(1−(count of test compound−blank)÷(control−blank))×100
# The count of the solution reacted without addition of the compound was used as a “control”, and the count of the solution without the compound and ATP was used as a “blank”.
# T1 sequence (P35968 786-1356 limits assumed): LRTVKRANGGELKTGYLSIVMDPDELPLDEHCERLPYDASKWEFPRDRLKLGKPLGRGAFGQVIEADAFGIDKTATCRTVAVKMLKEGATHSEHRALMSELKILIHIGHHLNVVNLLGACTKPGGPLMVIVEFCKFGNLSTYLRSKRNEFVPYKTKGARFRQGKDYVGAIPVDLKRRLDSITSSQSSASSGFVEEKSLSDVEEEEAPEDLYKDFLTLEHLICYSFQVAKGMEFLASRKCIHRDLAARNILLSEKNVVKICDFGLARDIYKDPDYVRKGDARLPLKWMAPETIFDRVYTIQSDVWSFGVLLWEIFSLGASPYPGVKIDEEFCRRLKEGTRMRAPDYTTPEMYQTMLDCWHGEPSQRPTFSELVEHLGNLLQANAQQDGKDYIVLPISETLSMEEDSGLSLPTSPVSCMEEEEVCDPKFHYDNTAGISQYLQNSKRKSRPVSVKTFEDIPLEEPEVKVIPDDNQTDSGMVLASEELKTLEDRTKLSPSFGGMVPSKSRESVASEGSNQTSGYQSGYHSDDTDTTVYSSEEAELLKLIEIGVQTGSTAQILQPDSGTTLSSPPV
row,SMILES,inhibition at 1 µM [%]
1,"O=C(c1ccc2[nH]c3c(c2c1)CCCc1cn[nH]c1-3)N1CCC(N2CCCCCC2)CC1 [Example 11, 8-[(4-azepan-1-ylpiperidin-1-yl)carbonyl]-4,5,6,11-tetrahydro-1H-pyrazolo[4′,3′:6,7]cyclohepta[1,2-b]indole hydrochloride]",≥ 90
2,"O=C(c1ccc2[nH]c3c(c2c1)CCCc1cn[nH]c1-3)N1CCC(N2CCSCC2)CC1 [Example 15, 8-[(4-thiomorpholin-4-ylpiperidin-1-yl)carbonyl]-4,5,6,11-tetrahydro-1H-pyrazolo[4′,3′:6,7]cyclohepta[1,2-b]indole hydrochloride]",≥ 90
3,"O=C(c1ccc2[nH]c3c(c2c1)CCCc1cn[nH]c1-3)N1CCC(NCc2ccccc2)CC1 [Example 17, N-benzyl-1-(4,5,6,11-tetrahydro-1H-pyrazolo[4′,3′:6,7]cyclohepta[1,2-b]indol-8-ylcarbonyl)piperidin-4-amine hydrochloride]",≥ 90
4,"O=C(c1ccc2[nH]c3c(c2c1)CCCc1cn[nH]c1-3)N1CCC(O)(c2ccc(F)cc2)CC1 [Example 41, 4-(4-fluorophenyl)-1-(4,5,6,11-tetrahydro-1H-pyrazolo[4′,3′:6,7]cyclohepta[1,2-b]indol-8-ylcarbonyl)piperidin-4-ol]",≥ 80
5,"O=C(c1ccc2[nH]c3c(c2c1)CCCc1cn[nH]c1-3)N1CCC(O)(c2ccc(Cl)cc2)CC1 [Example 44, 4-(4-chlorophenyl)-1-(4,5,6,11-tetrahydro-1H-pyrazolo[4′,3′:6,7]cyclohepta[1,2-b]indol-8-ylcarbonyl)piperidin-4-ol]",≥ 80
6,"O=C(c1ccc2[nH]c3c(c2c1)CCCc1cn[nH]c1-3)N1CCC(O)(c2cccc(Cl)c2)CC1 [Example 45, 4-(3-chlorophenyl)-1-(4,5,6,11-tetrahydro-1H-pyrazolo[4′,3′:6,7]cyclohepta[1,2-b]indol-8-ylcarbonyl)piperidin-4-ol]",≥ 80
7,"O=C(c1ccc2[nH]c3c(c2c1)CCCc1cn[nH]c1-3)N1CCC(O)(c2ccc(C(F)(F)F)cc2)CC1 [Example 47, 1-(4,5,6,11-tetrahydro-1H-pyrazolo[4′,3′:6,7]cyclohepta[1,2-b]indol-8-ylcarbonyl)-4-[4-(trifluoromethyl)phenyl]piperidin-4-ol]",≥ 80
8,"O=C(c1ccc2[nH]c3c(c2c1)CCCc1cn[nH]c1-3)N1CCC(O)(c2cccc(C(F)(F)F)c2)CC1 [Example 48, 1-(4,5,6,11-tetrahydro-1H-pyrazolo[4′,3′:6,7]cyclohepta[1,2-b]indol-8-ylcarbonyl)-4-[3-(trifluoromethyl)phenyl]piperidin-4-ol]",≥ 80

# Results, then the molecule that gave them:
row,inhibition at 1 µM [%],SMILES
1,≥ 80,"O=C(c1ccc2[nH]c3c(c2c1)CCCc1cn[nH]c1-3)N1CCC(O)(c2cccc(F)c2)CC1 [Example 42, 4-(3-fluorophenyl)-1-(4,5,6,11-tetrahydro-1H-pyrazolo[4′,3′:6,7]cyclohepta[1,2-b]indol-8-ylcarbonyl)piperidin-4-ol]"
2,≥ 80,"O=C(c1ccc2[nH]c3c(c2c1)CCCc1cn[nH]c1-3)N1CCC(O)(c2ccccc2F)CC1 [Example 43, 4-(2-fluorophenyl)-1-(4,5,6,11-tetrahydro-1H-pyrazolo[4′,3′:6,7]cyclohepta[1,2-b]indol-8-ylcarbonyl)piperidin-4-ol]"
3,≥ 80,"O=C(c1ccc2[nH]c3c(c2c1)CCCc1cn[nH]c1-3)N1CCC(O)(c2ccccc2Cl)CC1 [Example 46, 4-(2-chlorophenyl)-1-(4,5,6,11-tetrahydro-1H-pyrazolo[4′,3′:6,7]cyclohepta[1,2-b]indol-8-ylcarbonyl)piperidin-4-ol]"
4,≥ 80,"O=C(c1ccc2[nH]c3c(c2c1)CCCc1cn[nH]c1-3)N1CCC(O)(c2ccccc2C(F)(F)F)CC1 [Example 49, 1-(4,5,6,11-tetrahydro-1H-pyrazolo[4′,3′:6,7]cyclohepta[1,2-b]indol-8-ylcarbonyl)-4-[2-(trifluoromethyl)phenyl]piperidin-4-ol]"
